# Key:
# [1] = Experimental lipophilicity RM by reverse phase thin layer chromatography (RP-TLC); assay type: physicochemical; conditions: methanol-water mobile phase
# Protocol: Lipophilicity is a main physicochemical parameter for bioactive molecules, linking solubility, ligand-target binding interactions, membrane permeability absorption, distribution, bioavailability, metabolism, elimination and toxicological effects (ADMET), playing an important role in biological activity. The experimental values of lipophilicity RM were determined by reverse phase thin layer chromatography. For the experimental determination of lipophilicity the hydrophilic-lipid phase system is a mixture of methanol- water (90/10%). The theoretical lipophilicity values are determined by the Bioloom program (http://biobyte.com/bb/prod/bioloom.html, accessed on 8 April 2024) (Table 1). According to the calculated clog P values, the most lipophilic compounds are 3c, 3d and 3f while the less lipophilic ones are compounds 5a and 5b.
# Melting points were determined on a MEL-Temp II (Lab. Devices, Holliston, MA, USA). In vitro tests were carried out using a UV-Vis spectra and recorded on a Perkin-Elmer 554 double-beam spectrophotometer (Perkin-Elmer Corporation Ltd., Lane Beaconsfield, Bucks, UK). Infrared spectra (KBr pellets) were recorded with Perkin-Elmer 597 spectrophotometer (Perkin-Elmer Corporation Ltd., Lane Beaconsfield, Bucks, UK). The ^1H […] Magnetic Resonance (^1H-NMR) spectra were acquired on an Agilent 500/54 (DD2) at 500 MHz in CDCl3 using tetramethylsilane as an internal standard. Agilent 500/54 (DD2) ^13C NMR spectra were acquired at 125 MHz in CDCl3 solutions with tetramethylsilane serving as an internal reference. Coupling constants J are expressed in Hz, and chemical shifts are reported in ppm. Thermo Fisher Scientific Inc., Waltham, MA, USA, used MeOH as the solvent to calculate mass spectra using an LC-PDA-MS Thermo Finnigan system (LC Pump Plus, Autosampler, Surveyor PDA Plus Detector) interfaced with an ESI MSQ Plus (Thermo Finnigan). Thin-layer chromatography using 5554 F254 Silica gel/TLC cards (Merck and Fluka Chemie GmbH Buchs, Steinheim, Switzerland) was used to monitor the reaction progress. Silica gel 60 F254 plates with a diameter of 2 mm were utilized for preparative thin layer chromatography (prep TLC) by Merck KgaA (ICH078057). Merck (20 × 20 cm) plates were used for the experimental assessment of the lipophilicity using reverse phase thin-layer chromatography (RP-TLC) TLC-Silica gel 60 F254 DC Kieselgel.
# In this experiment, TLC silica gel 60 F254 1.05715.0001 commercial glass plates from Merck were used. The plates were first immersed in a 5% v/v solution of liquid paraffin in petroleum ether and left for 90 s to become completely impregnated with the stable lipophilic phase. They were then activated by standing for 30 min in an oven at 40 °C and kept there until the time of use. A 70% v/v MeOH/H2O mixture was used as the mobile phase. The mobile phase was saturated with a few drops of liquid paraffin before being used. The spots of the compounds were placed on the plate at a distance of 2 cm from the edges of the plate and also from each other. The development of the spots on the plates was carried out in closed chromatography chambers where the atmosphere is saturated with the mobile phase at room temperature. At the end of development, the solvent-formed front was marked and the plates are dried at 80 °C for about 20–30 min. The appearance of the spots was made under an ultraviolet light lamp. The Rf values were the average of 5–6 measurements for each compound and assuming that the compounds will have been rotated to different positions on the plates. The RM values were calculated from the corresponding Rf values according to the equation [67].RM = log [(1/Rf) − 1](1)
# [2] = Interaction with the stable free radical DPPH (reducing activity); conditions: 517 nm
# Protocol: In general, the compounds present moderate to good antioxidant activity. It seems that the dibenzylacetones present satisfactory antioxidant activity compared to the hybrids at 60 min (1b, 1d and 1f).
# The tested compounds (0.1 mM final concentration) dissolved in DMSO were incubated with a solution of DPPH in absolute ethanol in absence of light. The absorbance at 20 and 60 min at 517 nm was recorded at room temperature. NDGA was used as the reference compound.
# [3] = Inhibition of AAPH-induced linoleic acid peroxidation; conditions: 37 °C, 234 nm
# Protocol: The ability of the compounds to inhibit AAPH-induced peroxidation of linoleic acid is another assay to investigate the antioxidant properties of the compounds. Azo compounds such as 2,2′-azobis dihydrochloride (2-amidinopropane) (AAPH) are capable of generating free radicals through spontaneous decomposition at 37 °C. The R- radicals react immediately with air-oxygen to produce peroxy radicals. AAPH was therefore used as the radical initiator and sodium linoleate as substrate subjected to peroxidation. Measurements were carried out at 234 nm using a UV/V is spectrophotometer. Dichalcone 1i substituted with two phenyl groups presents the lowest lipophilicity. […] Therefore, hydrophilic substituents offer an increase in activity.
# The interaction of free radicals with cell membrane lipids induces free radical chain reactions, a process called lipid peroxidation. 930 μL of a phosphate buffer solution (0.05 M, pH = 7.4), 10 μL of the sodium linolate solution (16 mM in a buffer solution of Tris-HCl pH = 9) and 10 μL of the tested compounds (stock solutions 100 μΜ) were mixed and the oxidative procedure started after the addition of 50 μL AAPH at 37 °C under air conditions. The conjugated diene’s absorbance was measured at 234 nm at a thermostable spectrophotometer (37 °C) according to previous publication.
# [4] = target: T1, soybean lipoxygenase (SLOX-1) (Glycine max, UniProt P08170); assay: Inhibition of soybean lipoxygenase in vitro; assay type: biochemical; conditions: pH 9, sodium linoleate substrate; for inhibition at 100 µM: read-out: LOX% Inhibition, 100 μM (±SD); for IC50: read-out: LOX IC50 (μM) (±SD)
# T1 construct: 200 μL of plant-derived lipoxygenase solution (1:9 × 10^−4 w/v, in saline); purchased Sigma Chemical, Co; host or cells: soybean (plant-derived)
# T1 sequence (P08170 1-839): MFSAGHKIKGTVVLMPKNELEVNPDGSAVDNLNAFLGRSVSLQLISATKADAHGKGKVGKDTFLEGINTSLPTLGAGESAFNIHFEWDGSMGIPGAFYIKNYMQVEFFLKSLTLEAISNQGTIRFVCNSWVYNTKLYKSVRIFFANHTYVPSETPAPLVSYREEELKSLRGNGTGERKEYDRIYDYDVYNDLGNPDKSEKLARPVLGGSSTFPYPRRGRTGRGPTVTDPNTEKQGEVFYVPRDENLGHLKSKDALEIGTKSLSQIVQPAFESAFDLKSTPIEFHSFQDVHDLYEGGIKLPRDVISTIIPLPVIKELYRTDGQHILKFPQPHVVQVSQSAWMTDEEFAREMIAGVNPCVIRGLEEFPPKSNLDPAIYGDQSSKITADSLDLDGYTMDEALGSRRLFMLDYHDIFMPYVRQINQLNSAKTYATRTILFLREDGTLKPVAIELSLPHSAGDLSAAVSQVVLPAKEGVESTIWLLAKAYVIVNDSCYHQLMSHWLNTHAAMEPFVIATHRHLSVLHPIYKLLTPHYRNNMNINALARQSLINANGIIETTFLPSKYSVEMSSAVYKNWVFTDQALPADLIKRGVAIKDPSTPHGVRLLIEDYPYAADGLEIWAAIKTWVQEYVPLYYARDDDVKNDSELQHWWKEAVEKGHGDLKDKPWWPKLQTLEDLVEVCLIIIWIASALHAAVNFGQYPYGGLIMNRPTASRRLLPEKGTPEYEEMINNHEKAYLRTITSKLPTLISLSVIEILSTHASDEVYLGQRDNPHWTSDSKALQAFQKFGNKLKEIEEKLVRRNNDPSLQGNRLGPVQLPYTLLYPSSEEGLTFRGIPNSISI
# Protocol: Soybean lipoxygenase SLOX-1 at pH 9 is used in vitro. During this assay linoleic acid sodium salt is converted to the corresponding 13-hydroperoxide. The reaction is recorded photometrically at 234 nm using the UV-based enzyme assay. […] It is known that soybean LOX inhibitory activity induced by NSAIDs is qualitatively quite similar to the inhibition observed on the rat mast cells LOX and this assay may be used as a qualitative or semi-quantitative screen for such activity.
# To a quartz cell, add 790 μL of Tris-HCl pH = 9.0 buffer, 200 μL of plant-derived lipoxygenase solution (1:9 × 10^−4 w/v, in saline), 10 μL of the test compound solution and 100 μL of sodium linoleate solution (3 mM concentration). The absorbance was measured at 234 nm, where the change in absorbance due to the conversion of linoleic acid to […] was recorded. A solution of 790 μL of Tris-HCl pH = 9.0 buffer, 200 μL of a plant-derived lipoxygenase solution (1:9 × 10^−4 w/v, in saline), 10 μL of DMSO and 100 μL of sodium linoleate solution (3 mM concentration) was used as a control.
RM ± SD [1],inhibition at 100 µM [4] [%],IC50 [4] [µM],SMILES,"RA%, 100 μM, 20 min (±SD) [2] [%]","AAPH% Inhibition, 100 μM (±SD) [3] [%]","RA%, 100 μM, 60 min (±SD) [2] [%]"
0.06 ± 0.004,39 ± 0.7,–,"NC(=O)N1N=C(/C=C/c2ccc(F)cc2)CC1c1ccc(F)cc1 (stereo not shown) [Compound 5b, (E)-5-(4-fluorophenyl)-3-(4-fluorostyryl)-4,5-dihydro-1H-pyrazole-1-carboxamide]",19 ± 0.1,8 ± 0.2,–
0.28 ± 0.019,19 ± 0.4,–,"CN(C)c1ccc(/C=C/C2=NN(C(N)=O)C(c3ccc(N(C)C)cc3)C2)cc1 (stereo not shown) [Compound 5e, (E)-5-(4-dimethylaminophenyl)-3-(4-dimethylaminostyryl)-4,5-dihydro-1H-pyrazole-1-carboxamide]",20 ± 0.1,61 ± 0.9,–
1.00 ± 0.084,42 ± 2.4,–,"C(=C\c1ccccc1)/C1=NN(c2ccccc2)C(c2ccccc2)C1 (stereo not shown) [Compound 2a, (E)-1,5-Diphenyl-3-styryl-4,5-dihydro-1H-pyrazole]",–,44 ± 0.7,17 ± 1.2
1.11 ± 0.068,51 ± 2.2,–,"Brc1ccc(N2N=C(/C=C/c3ccccc3)CC2c2ccccc2)cc1 (stereo not shown) [Compound 3a, (E)-1-(4-bromophenyl)-5-phenyl-3-styryl-4,5-dihydro-1H-pyrazole]",10 ± 0.3,75 ± 1.4,22 ± 0.9
0.17 ± 0.014,24 ± 0.8,–,"CC(=O)N1N=C(/C=C/c2ccccc2)CC1c1ccccc1 (stereo not shown) [Compound 6a, (E)-5-phenyl-3-styryl-4,5-dihydro-1-H-pyrazol-1-ethan-1-one]",11 ± 0.6,22 ± 1,–
0.57 ± 0.031,24 ± 1.4,–,"O=C(/C=C/c1ccc(C(F)(F)F)cc1)/C=C/c1ccc(C(F)(F)F)cc1 [Compound 1f, (1E,4E)-1,5-bis(4-(trifluoromethyl)phenyl)-1,4-pentadien-3-one]",13 ± 0.8,32 ± 1.4,26 ± 0.9
1.25 ± 0.086,–,20,CN(C)c1ccc(/C=C/C2=NN(c3ccc(Br)cc3)C(c3ccc(N(C)C)cc3)C2)cc1 (stereo not shown) [Compound 3e],30 ± 0.9,80 ± 2.9,53 ± 0.9
0.85 ± 0.068,–,85,"N#Cc1ccc(N2N=C(/C=C/c3ccc(Cl)cc3)CC2c2ccc(Cl)cc2)cc1 (stereo not shown) [Compound 4d, (E)-4-(5-(4-chlorophenyl)-3-(4-chlorostyryl)-4,5-dihydro-1H-pyrazol-1-yl)-benzonitrile]",23 ± 0.3,51 ± 0.2,2 ± 0.1
1.07 ± 0.067,–,2.5,Clc1ccc(/C=C/C2=NN(c3ccccc3)C(c3ccc(Cl)cc3)C2)cc1 (stereo not shown) [Compound 2d],6 ± 0.4,75 ± 0.1,–
1.03 ± 0.057,17 ± 0.8,–,Fc1ccc(/C=C/C2=NN(c3ccc(Br)cc3)C(c3ccc(F)cc3)C2)cc1 (stereo not shown) [Compound 3b],2 ± 0.1,63 ± 2.6,6 ± 0.6
0.65 ± 0.048,42 ± 2.7,–,"CC(=O)N1N=C(/C=C/c2ccc(Cl)cc2)CC1c1ccc(Cl)cc1 (stereo not shown) [Compound 6d, (E)-5-(4-chlorophenyl)-3-(4-chlorostyryl)-4,5-dihydro-1-H-pyrazol-1-ethan-1-one]",–,67 ± 0.4,8 ± 0.7
1.31 ± 0.031,14 ± 0.8,–,FC(F)(F)c1ccc(/C=C/C2=NN(c3ccccc3)C(c3ccc(C(F)(F)F)cc3)C2)cc1 (stereo not shown) [Compound 2f],5 ± 0.2,52 ± 2.5,–
0.19 ± 0.001,30 ± 0.1,–,"O=C(/C=C/c1ccc(F)cc1)/C=C/c1ccc(F)cc1 [Compound 1b, (1E,4E)-1,5-bis(4-fluorophenyl)-1,4-pentadien-3-one]",13 ± 0.6,37 ± 0.1,100 ± 1.1
